Patent US11571455B2, “Methods and compositions for treating alcoholic liver disease” (VANDERBILT UNIVERSITY, priority 2013, dated 2023)
Bridge positions count the residues as written; N and C are the ends. Peptide text beside a SMILES is read from it.

What was measured:
[1] = test system: nuclear import of NF-κB, AP-1, NFAT, and STAT1 in Jurkat T cells; type: cell-based, human
[2] = target: T1, importin α5/karyopherin α1 (/KPNA1/SRP1) (Homo sapiens, UniProt P52294); assay: Binding to the nuclear import adaptor
T1 construct: SRP1/importin alpha 5 (karyopherin alpha1)/importin beta 1 heterodimer expressed in Jurkat T cells; endogenous in cells; host or cells: Jurkat T cells
Excerpt: Inflammatory liver injury mediated by macrophages (Kupffer cells) or T cells depends on the nuclear import of SRTFs. SRTFs regulate the genome response to proinflammatory and proapoptotic cues. The mechanism of action of cell-penetrating peptides SN50 and its cyclized analog cSN50 that inhibit the nuclear import of SRTFs is shown herein. SN50 binds to a nuclear import adaptor protein termed importin α5/karyopherin α1 (/KPNA1/SRP1) and inhibits its function as a cytoplasmic/nuclear shuttle for SRTFs. […] However, prior to the present disclosure, it was not known how EtOH influences the importin α5/karyopherin α1 (/KPNA1/SRP1)—mediated signaling to the nucleus and genome response in hepatocytes induced by LPS or Con A. Also identified was another putative nuclear import adapter, termed SARM, which appears to participate in LPS-induced liver injury. […] Example 2: Nuclear Import of Stress-Responsive Transcription Factors (SRTFs) Is Required for Inflammatory and Apoptotic Gene Expression.
It is well-recognized that signaling to the nucleus plays a key role in the response of T lymphocytes to immune and inflammatory stimuli. […]

[3] = test system: Staphylococcal enterotoxin B-induced systemic inflammation; conditions: mouse, in vivo

T1 sequence (P52294 whole entry): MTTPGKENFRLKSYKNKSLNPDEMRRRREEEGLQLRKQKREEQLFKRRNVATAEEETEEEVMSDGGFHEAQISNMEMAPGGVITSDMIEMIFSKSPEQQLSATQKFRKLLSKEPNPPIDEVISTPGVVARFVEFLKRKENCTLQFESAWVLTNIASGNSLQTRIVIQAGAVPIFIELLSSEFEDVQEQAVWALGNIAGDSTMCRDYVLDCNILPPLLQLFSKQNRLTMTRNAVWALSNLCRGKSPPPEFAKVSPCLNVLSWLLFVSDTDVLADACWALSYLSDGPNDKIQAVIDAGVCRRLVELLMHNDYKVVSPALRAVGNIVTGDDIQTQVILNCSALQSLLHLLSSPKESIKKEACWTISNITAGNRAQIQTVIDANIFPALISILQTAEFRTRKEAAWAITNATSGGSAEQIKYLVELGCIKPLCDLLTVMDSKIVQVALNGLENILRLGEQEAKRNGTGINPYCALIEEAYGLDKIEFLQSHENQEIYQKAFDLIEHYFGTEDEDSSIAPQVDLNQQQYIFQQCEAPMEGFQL
T1 sequence (Q14974 whole entry partner): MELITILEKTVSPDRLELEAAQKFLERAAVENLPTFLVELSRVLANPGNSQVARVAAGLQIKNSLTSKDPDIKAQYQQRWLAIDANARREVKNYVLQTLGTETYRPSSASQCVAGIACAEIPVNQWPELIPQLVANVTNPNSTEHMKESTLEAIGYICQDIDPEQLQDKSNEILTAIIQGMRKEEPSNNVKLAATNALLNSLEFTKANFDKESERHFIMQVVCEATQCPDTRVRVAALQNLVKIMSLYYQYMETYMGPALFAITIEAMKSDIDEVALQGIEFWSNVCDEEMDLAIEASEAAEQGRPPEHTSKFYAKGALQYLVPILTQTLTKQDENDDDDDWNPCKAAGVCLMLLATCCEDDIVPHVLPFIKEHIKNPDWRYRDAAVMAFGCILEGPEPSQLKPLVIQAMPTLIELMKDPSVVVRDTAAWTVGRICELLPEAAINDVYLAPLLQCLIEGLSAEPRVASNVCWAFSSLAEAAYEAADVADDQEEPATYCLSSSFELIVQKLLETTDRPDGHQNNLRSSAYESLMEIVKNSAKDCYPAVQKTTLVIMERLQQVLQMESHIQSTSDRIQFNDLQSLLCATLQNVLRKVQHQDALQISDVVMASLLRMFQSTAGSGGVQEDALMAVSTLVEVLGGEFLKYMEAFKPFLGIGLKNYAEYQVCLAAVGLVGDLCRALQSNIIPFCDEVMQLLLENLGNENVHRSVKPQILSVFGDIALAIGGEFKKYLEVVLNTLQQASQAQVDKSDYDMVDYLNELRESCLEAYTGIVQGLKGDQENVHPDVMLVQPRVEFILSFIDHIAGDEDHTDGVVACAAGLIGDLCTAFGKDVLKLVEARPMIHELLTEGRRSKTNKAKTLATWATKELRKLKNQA

| Molecule | nuclear import of SRTFs [1] | binding to importin α5/karyopherin α1 [2] | undesirable side effects [3] |
| --- | --- | --- | --- |
| AAVALLPAVLLALLAPVQRKRQKLMP [SN50, SSHR of K-FGF linked to NLS of NF-κB1 p50] | prevents nuclear import of four SRTFs | binds |  |
| CSCC[C@@H]1NC(=O)[C@H](CC(C)C)NC(=O)[C@H](CCCCN)NC(=O)[C@H](CCC(N)=O)NC(=O)[C@H](CCCNC(=N)N)NC(=O)[C@H](CCCCN)NC(=O)[C@H](CCCNC(=N)N)NC(=O)[C@H](CCC(N)=O)NC(=O)[C@H](C(C)C)NC(=O)[C@H](Cc2ccc(O)cc2)NC(=O)[C@@H](NC(=O)[C@@H]2CCCN2C(=O)[C@H](C)NC(=O)[C@H](CC(C)C)NC(=O)[C@H](CC(C)C)NC(=O)[C@H](C)NC(=O)[C@H](CC(C)C)NC(=O)[C@H](CC(C)C)NC(=O)[C@@H](NC(=O)[C@H](C)NC(=O)[C@@H]2CCCN2C(=O)[C@H](CC(C)C)NC(=O)[C@H](CC(C)C)NC(=O)[C@H](C)NC(=O)[C@@H](NC(=O)[C@H](C)NC(=O)[C@H](C)N)C(C)C)C(C)C)CSSC[C@@H](C(=O)O)NC(=O)[C@@H]2CCCN2C1=O [cSN50] (H-AAVALLPAVLLALLAPCYVQRKRQKLMPC-OH; disulfide 17-29; N-terminus and C-terminus assumed) |  |  | does not seem to cause undesirable side effects |
